# Measurements taken from patent publication US7932394B2, “Aryloxy-substituted benzimidazole derivatives” (MSD K.K., priority 2004, dated 2011).
# pEC50: −log10 of the molar value.
# Molecular target: T1, recombinant human liver GK (Homo sapiens, UniProt P35557)
# T1 construct: made in house; host or cells: E. coli
# T1 sequence (P35557 1-466 isoform P35557-2): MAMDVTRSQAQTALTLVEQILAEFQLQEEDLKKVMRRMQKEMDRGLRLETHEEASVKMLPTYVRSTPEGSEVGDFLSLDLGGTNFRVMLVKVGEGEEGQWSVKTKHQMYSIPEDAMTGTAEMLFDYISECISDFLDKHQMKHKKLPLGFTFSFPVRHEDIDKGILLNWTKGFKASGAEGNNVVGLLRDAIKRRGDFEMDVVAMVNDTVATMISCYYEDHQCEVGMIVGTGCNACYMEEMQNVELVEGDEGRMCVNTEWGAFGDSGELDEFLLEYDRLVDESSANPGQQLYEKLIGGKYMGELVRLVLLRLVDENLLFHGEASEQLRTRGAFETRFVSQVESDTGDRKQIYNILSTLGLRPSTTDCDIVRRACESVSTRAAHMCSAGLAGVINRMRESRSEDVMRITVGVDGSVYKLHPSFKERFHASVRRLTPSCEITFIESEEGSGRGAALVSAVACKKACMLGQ
# Assay: GK-activating potency: glucokinase activity via Thio-NADH level (G6PDH reporter enzyme)
# Type: biochemical
# Conditions: FLAG-GK, 30° C., final glucose concentration 2.5 mM; for Emax: OD level of DMSO control set as 100%
# Excerpt: The excellent glucokinase-activating effect of the compounds of formula (I) may be determined by a method described in references (for example, Diabetes, Vol. 45, pp. 1671-1677, 1996), or in accordance with it.
# The glucokinase activity may be determined not by directly measuring glucose-6-phosphate but by measuring the level of Thio-NADH, which is produced when a reporter enzyme, glucose-6-phosphate dehydrogenase produces phosphogluconolactone from glucose-6-phosphate, and based on the level, the degree of glucokinase activity of the compound tested may be determined.
# In this assay, used was a recombinant human liver GK, which was expressed by E. coli as a FLAG fusion protein therein and was purified by ANTIFLAG M2 AFFINITY GEL (Sigma).
# Using a flat-bottomed 96-well plate, the assay was carried out at 30° C. 69 μl of an assay buffer (25 mM Hepes Buffer/pH=7.2, 2 mM MgCl2, 1 mM ATP, 0.5 mM TNAD, 1 mM dithiothreitol) was put into the plate, and 1 μl of a DMSO solution of the compound or DMSO alone as a control was added thereto. Next, 20 μl of an enzyme mixture (FLAG-GK, 20 U/ml G6PDH) cooled in ice was added to it, and 10 μl of a substrate, 25 mM glucose was added to it, and the reaction was initiated (final glucose concentration=2.5 mM).
# After the start of the reaction, the increase in the absorbance at 405 nm was measured for 12 minutes at intervals of 30 seconds, and the increase for the first 5 minutes was used for evaluating the compound tested. FLAG-GK was added so that the absorbance increase after 5 minutes in the presence of 1% DMSO could be from 0.04 to 0.06.
# The OD level of the DMSO control was set as 100%; and the OD level of the test compound at different concentrations was determined. From the OD level at each concentration, Emax (%) and EC50 (μM) were computed and used as the index of the GK-activating potency of the compound.
SMILES,pEC50,Emax
"CCS(=O)(=O)c1ccc(Oc2cc3nc(-c4ccccn4)[nH]c3cc2CNS(C)(=O)=O)cc1 [Example 31, N-{[5-[4-(ethylsulfonyl)phenoxy]-2-(2-pyridinyl)-1H-benzimidazol-6-yl]methyl}methanesulfonamide]",6.31,982%
"CS(=O)(=O)c1ccc(Oc2cc3nc(-c4ccccn4)[nH]c3cc2CN2C(=O)CCC2=O)cc1 [Example 1, 1-{[5-[4-(Methylsulfonyl)phenoxy]-2-(2-pyridinyl)-1H-benzimidazol-6-yl]methyl}pyrrolidine-2,5-dione]",6.92,–
"CCS(=O)(=O)c1ccc(Oc2cc3nc(-c4ccccn4)[nH]c3cc2Cc2ccc(F)cc2)cc1 [Example 65, 5-[4-(Ethylsulfonyl)phenoxy]-6-(4-fluorobenzyl)-2-(2-pyridinyl)-1H-benzimidazole]",6.44,805%
